Values joined by “and” are separate entries in the source; they are usually repeats but may differ in a detail not shown here. Equal values may be shown once.
Legend:
MCL-1 = biological target: T1, MCL-1 (Homo sapiens, UniProt Q07820); test: Isothermal calorimetry (ITC) of peptide binding to MCL-1; details: 50 mM Tris, 150 mM NaCl, pH 7.5, 150 μM peptide; for Kd: 25°C, one-binding site model
T1 construct: 172-327 was expressed; His-SUMO (N, cleaved yes); made in house
Procedure: Peptide variants were prepared as N-terminal acetamides and C-terminal amides (see ESI ^†). […] Lastly, structural effects of these variations were investigated using circular dichroism (CD) spectroscopy (Fig. S4, ESI ^†).
(b) ITC data (50 mM Tris, 150 mM NaCl, pH 7.5, 150 μM peptide). […]
ITC experiments were carried out using a Microcal ITC200i instrument (Malvern) at 25°C in […]
[…] The protein of interest was dialysed against the buffer prior to experiment, and lyophilized peptides were dissolved in the same buffer. Protein was present in the cell and titrated with peptide solutions loaded into the syringe using 20 x 2 uL injections with 120 s spacing between the injections. Heats of peptide dilution were subtracted from each measurement raw data. Data was analysed using Microcal Origin 8 and

hMCL-1 172-327 = biological target: T2, hMCL-1 172-327 (Homo sapiens, UniProt Q07820); test: Fluorescence anisotropy competition assay, FITC-Ahx-BIM75–85 tracer / MCL-1; type: binding; details: for inhibitory activity in competition FA: competition FA vs FITC-Ahx-BIM75–85/MCL-1, relative to NOXA75–93
T2 construct: 172-327 was expressed; His-SUMO (N, cleaved yes); made in house
Procedure: (§1) Fluorescence anisotropy assays were performed in 384-well plates (Greiner Bio-one). Each experiment was run in triplicate and the fluorescence anisotropy measured using a Perkin Elmer EnVisionTM 2103 MultiLabel plate reader, with excitation at 480 nm (30 nm bandwidth), polarised dichroic mirror at 505 nm and emission at 535 nm (40 nm bandwidth, S and P polarised). All assays were performed in 20 mM Tris, 100 mM NaCl, 0.1 mM DTT, pH 7.5 unless otherwise stated and data analysed following previously published methods.
(§2) Fluorescence anisotropy data was processed as described previously.[2] Briefly. the data from both the P (perpendicular intensity) and S (parallel intensity) channels, resulting from this measurement and corrected by subtracting the corresponding control wells, were used to calculate the intensity and anisotropy for each well following Equations 1 and 2: […]
(§3) For direct titration the average anisotropy (across three experimental replicates) and the standard deviation of these values were then calculated and fit to a logistic model using OriginPro 9.0 to determine the maximum and minimum anisotropies then the fraction bound calculated (Equation 3) and used to determine Kd (equation 4)
(§4) Lb= (r‒rmin)/λ(rmax‒r)+r‒rmin Equation 3
(§5) y= {(k+ x+[ FL])‒√{k+x+[FL] 2‒4x[FL]}}/2 Equation 4 r = anisotropy, I = total intensity, P = perpendicular intensity, S = parallel intensity, G = instrument factor which was set to 1 for all experiments, Lb = fraction ligand bound, λ = […]
(§6) For competition experiments, the anisotropies were determined as for the direct titration and then plotted against inhibitor concentration and fit (equation 5) to determine the IC50 and error […]
(§7) y = rmax + (rmin-rmax)/(1+(x/xo)p) Equation 5
(§8) Where xo represents the IC50 […]
(§9) Competition binding assays:
(§10) FA competition assays were performed in 384 well plates with the concentration of variant […]
(§11) with fixed protein and tracer concentrations. FITC-labelled peptide was added to each well to […]
(§12) For control wells, the tracer peptide was replaced with an identical volume of assay buffer.
(§13) The total volume in each well was 60 μL. […]

α-chymotrypsin = test: Proteolysis by α-chymotrypsin; type: in vitro ADME, bovine; details: 45 μM peptide, 0.25 μg/ml α-chymotrypsin, 25 °C, 50 mM Tris-HCl pH 8.0, 150 mM NaCl, 10 mM CaCl2; LC-MS EIC of full-length peptide; triplicate
Source text: An advantage of PreSaVS lies in the ability to identify tolerated variants – in terms of target binding affinity – with more desirable physicochemical properties (Table S3 for calculated physicochemical properties, ESI ^†). […] This may arise from subtle changes in protease recognition specificity, although given proteases recognise substrates in an extended, β-like conformation as is the case for the SIM2705–2717/SUMO interaction, secondary structure propensity may also play a role.
Figure S7. Proteolysis data for (a) NOXA75-93 (45 μM peptide in the presence of 0.25 μg/ml α-chymotrypsin at 25 °C) and (b) SIM2705-2717 (40 μM peptide in the presence of 0.75 μg/mL Proteinase K at 25 °C). Data points show the mean ± standard deviation over triplicate measurements. Insets show t1/2 values.
as §8
diluted over 16-24 points using 2-fold dilutions. […]
of assay buffer. Plates were read after 45 minutes. […]
The total volume in each well was 60 μL. Plates were read after 45 minutes of incubation at […]
uL injections with 120 s spacing between the injections. […] Data was analysed using Microcal Origin 8 and fitted to a one-binding site model […]
Peptide solubility was assessed using a qualitative test.
= 5690 M-1cm-1), concentrations were determined based on the absorbance at 280 nm. For NOXA variants, concentrations were determined based on absorbance at 205 nm (ε 205 = […]

hSUMO-1 18-97 = biological target: T3, hSUMO-1 18-97 (Homo sapiens, UniProt P63165); test: Fluorescence anisotropy competition assay, FITC-peg-SIM tracer / SUMO; type: binding; details: for IC50: competition FA, 50 mM Tris, 150 mM NaCl, 25 nM tracer, 100 nM SUMO, read after 45 min, triplicate; for inhibitory potency in competition FA: competition FA vs SIM tracer/SUMO, relative to SIM2705–2717
T3 construct: 18-97; His-TEV (N, cleaved yes); made in house
Procedure: hSUMO-1 18-97 was expressed and purified as previously described from a pet19b His-TEV-SUMO-1 (18-97) construct with cleavage of the tag using TEV protease.4 […]
as §1, §2, §3, §4, §5, §6, §7, §8, §9, §10, §11, §12, §13

T2 sequence (Q07820 172-327): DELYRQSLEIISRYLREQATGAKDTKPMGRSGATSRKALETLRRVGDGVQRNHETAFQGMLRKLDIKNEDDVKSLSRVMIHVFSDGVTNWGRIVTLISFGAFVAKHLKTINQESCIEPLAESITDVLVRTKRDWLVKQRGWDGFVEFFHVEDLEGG
T1 sequence (Q07820 172-327): as above
T3 sequence (P63165 18-97): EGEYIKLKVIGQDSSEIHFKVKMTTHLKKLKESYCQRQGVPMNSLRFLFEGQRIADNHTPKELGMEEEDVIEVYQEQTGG

Row | Compound | ΔG (MCL-1) [kcal/mol] | ΔH (MCL-1) [kcal/mol] | Kd (MCL-1) [µM] | IC50 (hMCL-1 172-327) [µM] | inhibitory activity in competition FA (hMCL-1 172-327) | IC50 (hSUMO-1 18-97) | further results
1 | Ac-AAQWRRIGDKVNLRQKLLN-NH2 [NOXA75–93L78W] | -1.83 | -3.13 ± 0.932 | 2.4 ± 0.8 | 2.2 ± 0.1 | tolerated |  | −TΔS (MCL-1): 1.31 kcal/mol
2 | CC[C@H](C)[C@H](NC(=O)[C@H](CCC(=O)O)NC(=O)[C@H](CC(N)=O)NC(=O)[C@H](CC(=O)O)NC(C)=O)C(=O)N[C@@H](CCC(=O)O)C(=O)N[C@H](C(=O)N[C@H](C(=O)N[C@H](C(=O)N[C@H](C(=O)N[C@@H](Cc1c[nH]c2ccccc12)C(=O)N[C@@H](CCC(=O)O)C(=O)N[C@@H](CCCCN)C(=O)N[C@@H](CCCCN)C(N)=O)C(C)C)[C@@H](C)CC)[C@@H](C)CC)[C@@H](C)CC [SIM2705–2717V2710I] |  |  |  |  |  | 16.2 µM and 16.1 µM | 
3 | Ac-AAQLRRIGDKFNLRQKLLN-NH2 [NOXA75–93V85F] | -2 | -3.66 ± 0.813 | 0.8 ± 0.1 | > 20 | weaker inhibitory activity |  | −TΔS (MCL-1): 1.65 kcal/mol
4 | CC[C@H](C)[C@H](NC(=O)[C@H](CCC(=O)O)NC(=O)[C@H](CC(N)=O)NC(=O)[C@H](CC(=O)O)NC(C)=O)C(=O)N[C@@H](CCC(=O)O)C(=O)N[C@H](C(=O)N[C@H](C(=O)N[C@H](C(=O)N[C@@H](CCC(=O)O)C(=O)N[C@@H](Cc1c[nH]c2ccccc12)C(=O)N[C@@H](CCC(=O)O)C(=O)N[C@@H](CCCCN)C(=O)N[C@@H](CCCCN)C(N)=O)[C@@H](C)CC)[C@@H](C)CC)C(C)C [SIM2705–2717V2713E] |  |  |  |  |  | > 200 µM | inhibitory potency in competition FA (hSUMO-1 18-97): lost inhibitory potency
5 | Ac-AAQFRRIGDKVNLRQKLLN-NH2 [NOXA75–93L78F] |  |  | 1.7 ± 0.1 | 2.7 ± 0.1 |  |  | increased rate of cleavage by α-chymotrypsin relative to NOXA75–93 (α-chymotrypsin): ≈ 10 fold
6 | CC[C@H](C)[C@H](NC(=O)[C@H](CCCNC(=N)N)NC(=O)[C@H](CCCNC(=N)N)NC(=O)[C@H](CC(C)C)NC(=O)[C@H](CCC(N)=O)NC(=O)[C@H](C)NC(=O)[C@H](C)NC(C)=O)C(=O)NCC(=O)N[C@@H](CC(=O)O)C(=O)N[C@@H](CCCCN)C(=O)N[C@H](C(=O)N[C@@H](CC(N)=O)C(=O)N[C@@H](CC(C)C)C(=O)N[C@@H](CCCNC(=N)N)C(=O)N[C@@H](CCC(N)=O)C(=O)N[C@@H](CCCCN)C(=O)N[C@@H](CC(C)C)C(=O)N[C@@H](CC(C)C)C(=O)N[C@@H](CC(N)=O)C(N)=O)C(C)C [NOXA75–93] | -2.08 | -4.59 ± 0.359 |  |  |  |  | 

Second part, led by results:

Row | ΔG (MCL-1) [kcal/mol] | ΔH (MCL-1) [kcal/mol] | Kd (MCL-1) [µM] | IC50 (hMCL-1 172-327) [µM] | inhibitory activity in competition FA (hMCL-1 172-327) | IC50 (hSUMO-1 18-97) | Compound | further results
7 |  |  |  | > 100 | poor inhibitor |  | Ac-AAQYRRIGDKVNLRQKLLN-NH2 [NOXA75–93L78Y] | increased rate of cleavage by α-chymotrypsin relative to NOXA75–93 (α-chymotrypsin): ≈ 10 fold
8 |  |  |  |  |  | > 200 µM | CC[C@H](C)[C@H](NC(=O)[C@H](CCC(=O)O)NC(=O)[C@H](CC(N)=O)NC(=O)[C@H](CC(=O)O)NC(C)=O)C(=O)N[C@@H](CCC(=O)O)C(=O)N[C@H](C(=O)N[C@@H](CCC(=O)O)C(=O)N[C@H](C(=O)N[C@H](C(=O)N[C@@H](Cc1c[nH]c2ccccc12)C(=O)N[C@@H](CCC(=O)O)C(=O)N[C@@H](CCCCN)C(=O)N[C@@H](CCCCN)C(N)=O)C(C)C)[C@@H](C)CC)C(C)C [SIM2705–2717I2711E] | inhibitory potency in competition FA (hSUMO-1 18-97): lost inhibitory potency

— PMC8495968, “Towards optimizing peptide-based inhibitors of protein–protein interactions: predictive saturation variation scanning (PreSaVS)” (RSC Chemical Biology, 2021)
